Test results as given in PubChem BioAssay (NCI).
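Cells were grown in 96-well plates and exposed to each compound for 48 hours at five concentrations; endpoints were interpolated linearly between bracketing concentrations, or set to the highest concentration if not reached. GI50: concentration for 50% inhibition of growth. TGI: concentration producing complete growth inhibition.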

Key:
Assay in all cases: inhibition of tumour cell growth, NCI panel, 48 h
786-0 renal = system: 786-0 renal
A498 renal = system: A498 renal
A549 NSCLC = system: A549 NSCLC
ACHN renal = system: ACHN renal
BT-549 breast = system: BT-549 breast
CAKI-1 renal = system: CAKI-1 renal
CCRF-CEM leukemia = system: CCRF-CEM leukemia
COLO 205 colon = system: COLO 205 colon
DU-145 prostate = system: DU-145 prostate
EKVX NSCLC = system: EKVX NSCLC
HCC-2998 colon = system: HCC-2998 colon
HCT-116 colon = system: HCT-116 colon
HCT-15 colon = system: HCT-15 colon
HL-60(TB) leukemia = system: HL-60(TB) leukemia
HOP-62 NSCLC = system: HOP-62 NSCLC
HOP-92 NSCLC = system: HOP-92 NSCLC
HS 578T breast = system: HS 578T breast
HT29 colon = system: HT29 colon
IGROV1 ovarian = system: IGROV1 ovarian
K-562 leukemia = system: K-562 leukemia
KM12 colon = system: KM12 colon
LOX IMVI melanoma = system: LOX IMVI melanoma
M14 melanoma = system: M14 melanoma
MALME-3M melanoma = system: MALME-3M melanoma
MCF7 breast = system: MCF7 breast
MDA-MB-231 breast = system: MDA-MB-231 breast
MDA-MB-435 = system: MDA-MB-435
MOLT-4 leukemia = system: MOLT-4 leukemia
NCI-H226 lung = system: NCI-H226 lung
NCI-H23 lung = system: NCI-H23 lung
NCI-H460 lung = system: NCI-H460 lung
NCI-H522 lung = system: NCI-H522 lung
NCI/ADR-RES ovarian = system: NCI/ADR-RES ovarian
OVCAR-3 ovarian = system: OVCAR-3 ovarian
OVCAR-4 ovarian = system: OVCAR-4 ovarian
OVCAR-5 ovarian = system: OVCAR-5 ovarian
OVCAR-8 ovarian = system: OVCAR-8 ovarian
PC-3 prostate = system: PC-3 prostate
RPMI-8226 leukemia = system: RPMI-8226 leukemia
RXF 393 renal = system: RXF 393 renal
SF-268 CNS = system: SF-268 CNS
SF-295 CNS = system: SF-295 CNS
SK-MEL-2 melanoma = system: SK-MEL-2 melanoma
SK-MEL-28 melanoma = system: SK-MEL-28 melanoma
SK-MEL-5 melanoma = system: SK-MEL-5 melanoma
SK-OV-3 ovarian = system: SK-OV-3 ovarian
SN12C renal = system: SN12C renal
SNB-19 CNS = system: SNB-19 CNS
SNB-75 CNS = system: SNB-75 CNS
SR leukemia = system: SR leukemia
SW-620 colon = system: SW-620 colon
T-47D breast = system: T-47D breast
TK-10 renal = system: TK-10 renal
U251 CNS = system: U251 CNS
UACC-257 melanoma = system: UACC-257 melanoma
UACC-62 melanoma = system: UACC-62 melanoma
UO-31 renal = system: UO-31 renal
SF-539 CNS = system: SF-539 CNS

SMILES: CC12OC(CC(O)C1O)n1c3ccccc3c3c4c(c5c6ccccc6n2c5c31)C(=O)N(CCN1CCOCC1)C4=O (centres undefined)
- GI50 (786-0 renal): 1.29 µM
- TGI (786-0 renal): 5.68 µM
- GI50 (A498 renal): 0.838 µM
- TGI (A498 renal): 3.27 µM
- GI50 (A549 NSCLC): 0.4 µM
- TGI (A549 NSCLC): 2.35 µM
- GI50 (ACHN renal): 0.526 µM
- TGI (ACHN renal): 1.69 µM
- GI50 (BT-549 breast): 1.61 µM
- TGI (BT-549 breast): 8.21 µM
- GI50 (CAKI-1 renal): 1.02 µM
- TGI (CAKI-1 renal): 5.43 µM
- GI50 (CCRF-CEM leukemia): 1.16 µM
- TGI (CCRF-CEM leukemia): 8.95 µM
- GI50 (COLO 205 colon): 0.606 µM
- TGI (COLO 205 colon): 4.51 µM
- GI50 (DU-145 prostate): 0.949 µM
- TGI (DU-145 prostate): 6.1 µM
- GI50 (EKVX NSCLC): 1.48 µM
- TGI (EKVX NSCLC): 8.94 µM
- GI50 (HCC-2998 colon): 3.25 µM
- TGI (HCC-2998 colon): 10.6 µM
- GI50 (HCT-116 colon): 0.625 µM
- TGI (HCT-116 colon): 5.51 µM
- GI50 (HCT-15 colon): 1.26 µM
- TGI (HCT-15 colon): 8.21 µM
- GI50 (HL-60(TB) leukemia): 0.989 µM
- TGI (HL-60(TB) leukemia): 7.08 µM
- GI50 (HOP-62 NSCLC): 1.27 µM
- TGI (HOP-62 NSCLC): 4.22 µM
- GI50 (HOP-92 NSCLC): 2.03 µM
- TGI (HOP-92 NSCLC): 9.4 µM
- GI50 (HS 578T breast): 1.92 µM
- TGI (HS 578T breast): 10.2 µM
- GI50 (HT29 colon): 0.968 µM
- TGI (HT29 colon): 6.83 µM
- GI50 (IGROV1 ovarian): 0.98 µM
- TGI (IGROV1 ovarian): 8.65 µM
- GI50 (K-562 leukemia): 1.25 µM
- TGI (K-562 leukemia): 10.4 µM
- GI50 (KM12 colon): 1.25 µM
- TGI (KM12 colon): 6.5 µM
- GI50 (LOX IMVI melanoma): 0.425 µM
- TGI (LOX IMVI melanoma): 1.29 µM
- GI50 (M14 melanoma): 0.912 µM
- TGI (M14 melanoma): 4.54 µM
- GI50 (MALME-3M melanoma): 0.921 µM
- TGI (MALME-3M melanoma): 5.27 µM
- GI50 (MCF7 breast): 0.242 µM
- TGI (MCF7 breast): 8.02 µM
- GI50 (MDA-MB-231 breast): 3.04 µM
- TGI (MDA-MB-231 breast): 11.5 µM
- GI50 (MDA-MB-435): 1.46 µM
- TGI (MDA-MB-435): 7.56 µM
- GI50 (MOLT-4 leukemia): 0.23 µM
- TGI (MOLT-4 leukemia): 4.26 µM
- GI50 (NCI-H226 lung): 1.11 µM
- TGI (NCI-H226 lung): 4.01 µM
- GI50 (NCI-H23 lung): 1.05 µM
- TGI (NCI-H23 lung): 4.87 µM
- GI50 (NCI-H460 lung): 0.205 µM
- TGI (NCI-H460 lung): 1.7 µM
- GI50 (NCI-H522 lung): 0.704 µM
- TGI (NCI-H522 lung): 3.63 µM
- GI50 (NCI/ADR-RES ovarian): 1.82 µM
- TGI (NCI/ADR-RES ovarian): 8.31 µM
- GI50 (OVCAR-3 ovarian): 1.55 µM
- TGI (OVCAR-3 ovarian): 7.33 µM
- GI50 (OVCAR-4 ovarian): 2.2 µM
- TGI (OVCAR-4 ovarian): 12.3 µM
- GI50 (OVCAR-5 ovarian): 2.32 µM
- TGI (OVCAR-5 ovarian): 9.65 µM
- GI50 (OVCAR-8 ovarian): 1.43 µM
- TGI (OVCAR-8 ovarian): 8.71 µM
- GI50 (PC-3 prostate): 1.19 µM
- TGI (PC-3 prostate): 7.3 µM
- GI50 (RPMI-8226 leukemia): 1.55 µM
- TGI (RPMI-8226 leukemia): 9.87 µM
- GI50 (RXF 393 renal): 1.31 µM
- TGI (RXF 393 renal): 5.03 µM
- GI50 (SF-268 CNS): 1.08 µM
- TGI (SF-268 CNS): 7.87 µM
- GI50 (SF-295 CNS): 0.598 µM
- TGI (SF-295 CNS): 3.17 µM
- GI50 (SK-MEL-2 melanoma): 2.18 µM
- TGI (SK-MEL-2 melanoma): 10.6 µM
- GI50 (SK-MEL-28 melanoma): 2.16 µM
- TGI (SK-MEL-28 melanoma): 8.57 µM
- GI50 (SK-MEL-5 melanoma): 0.791 µM
- TGI (SK-MEL-5 melanoma): 2.87 µM
- GI50 (SK-OV-3 ovarian): 1.19 µM
- TGI (SK-OV-3 ovarian): 4.13 µM
- GI50 (SN12C renal): 1.02 µM
- TGI (SN12C renal): 6.12 µM
- GI50 (SNB-19 CNS): 1.46 µM
- TGI (SNB-19 CNS): 13.9 µM
- GI50 (SNB-75 CNS): 0.765 µM
- TGI (SNB-75 CNS): 5.37 µM
- GI50 (SR leukemia): 0.176 µM
- TGI (SR leukemia): 6.76 µM
- GI50 (SW-620 colon): 0.626 µM
- TGI (SW-620 colon): 7.42 µM
- GI50 (T-47D breast): 0.651 µM
- TGI (T-47D breast): 3.84 µM
- GI50 (TK-10 renal): 0.953 µM
- TGI (TK-10 renal): 5.48 µM
- GI50 (U251 CNS): 0.604 µM
- TGI (U251 CNS): 5.65 µM
- GI50 (UACC-257 melanoma): 1.97 µM
- TGI (UACC-257 melanoma): 7.64 µM
- GI50 (UACC-62 melanoma): 0.568 µM
- TGI (UACC-62 melanoma): 1.47 µM
- GI50 (UO-31 renal): 1.04 µM
- TGI (UO-31 renal): 5.77 µM

SMILES: C/C=C/c1cc2c(cc1O)CC[C@@H]1[C@@H]2CC[C@]2(C)[C@@H](O)CC[C@@H]12
- TGI (786-0 renal): 13.8 µM
- TGI (A498 renal): 6.11 µM
- TGI (A549 NSCLC): 15.9 µM
- TGI (ACHN renal): 15.5 µM
- TGI (BT-549 breast): 22.8 µM
- TGI (CAKI-1 renal): 21.1 µM
- TGI (CCRF-CEM leukemia): 8.44 µM
- TGI (COLO 205 colon): 24.4 µM
- TGI (DU-145 prostate): 3.05 µM
- TGI (EKVX NSCLC): 24.7 µM
- TGI (HCC-2998 colon): 7.13 µM
- TGI (HCT-116 colon): 5.17 µM
- TGI (HCT-15 colon): 18 µM
- TGI (HOP-62 NSCLC): 16.3 µM
- TGI (HS 578T breast): 22.3 µM
- TGI (HT29 colon): 20.4 µM
- TGI (IGROV1 ovarian): 19 µM
- TGI (K-562 leukemia): 15.7 µM
- TGI (KM12 colon): 13.4 µM
- TGI (LOX IMVI melanoma): 24.3 µM
- TGI (M14 melanoma): 4.05 µM
- TGI (MALME-3M melanoma): 23.1 µM
- TGI (MCF7 breast): 1.28 µM
- TGI (MDA-MB-231 breast): 4.94 µM
- TGI (MDA-MB-435): 0.0948 µM
- TGI (MOLT-4 leukemia): 15.8 µM
- TGI (NCI-H226 lung): 1.96 µM
- TGI (NCI-H23 lung): 4.62 µM
- TGI (NCI-H460 lung): 14.3 µM
- TGI (NCI-H522 lung): 0.117 µM
- TGI (OVCAR-3 ovarian): 2.24 µM
- TGI (OVCAR-4 ovarian): 27.2 µM
- TGI (OVCAR-5 ovarian): 25.4 µM
- TGI (OVCAR-8 ovarian): 18.1 µM
- TGI (PC-3 prostate): 23 µM
- TGI (RPMI-8226 leukemia): > 82.6 µM
- TGI (RXF 393 renal): 1.3 µM
- TGI (SF-268 CNS): 21.5 µM
- TGI (SF-295 CNS): 14.2 µM
- TGI (SF-539 CNS): 0.15 µM
- TGI (SK-MEL-2 melanoma): 16.7 µM
- TGI (SK-MEL-28 melanoma): 21.6 µM
- TGI (SK-MEL-5 melanoma): 14.2 µM
- TGI (SK-OV-3 ovarian): 15.3 µM
- TGI (SN12C renal): 20.5 µM
- TGI (SNB-19 CNS): 14.9 µM
- TGI (SNB-75 CNS): 3.48 µM
- TGI (SR leukemia): > 19.6 µM
- TGI (SW-620 colon): 19 µM
- TGI (T-47D breast): 41.7 µM
- TGI (TK-10 renal): 27.3 µM
- TGI (U251 CNS): 13 µM
- TGI (UACC-257 melanoma): 22.4 µM
- TGI (UACC-62 melanoma): 15.4 µM
- TGI (UO-31 renal): 18.5 µM
